Assay results: paper PMC11003925, “Antimicrobial activity and properties of de novo design of short synthetic lipopeptides” (Folia Microbiologica, 2024)
Values after ≈ are worked out from the molar mass of the structure shown. Residues, ends and D or L forms follow the SMILES beside them. *: point of attachment. Palmitoyl = CCCCCCCCCCCCCCCC(=O)*

Legend:
[1] = system: A. baumannii DBM 3183; assay: microbe, parasite or virus in culture; type: cell-based, Acinetobacter baumannii; conditions: DBM 3183, 25 h
Procedure: (§1) A Bioscreen C automated microbiology growth curve analysis system (Growth Curves, Piscataway, NJ, USA) was used for the quantitative determination of antimicrobial activity (minimal inhibitory concentration, MIC) of PAL/LCA-peptides. Optical density was measured with a wide bandpass filter (wavelength range 420–580 nm) at regular intervals and temperatures. This assay was performed in a special microtiter plate (10 × 10 wells) that allowed the simultaneous testing of a large number of samples against several microorganisms. The total testing volume was 100 µL, obtained by mixing 10 µL of microbial culture with OD600 equal to 0.1 with growth medium and a solution of the tested compounds. The positive controls were vancomycin and tetracycline for Bacillus subtilis (100 µg/mL) for Gram-positive bacteria, kanamycin, and tetracycline for Acinetobacter baumannii (100 µg/mL) for Gram-negative bacteria, and clotrimazole or amphotericin (100 µg/mL) for fungi. The maximal concentration of tested lipoproteins was 1 mg/mL. A pure growth medium was used as the negative control. The measurement period was 25 h. The lowest concentration with a 100% inhibition effect for 24 h of incubation was chosen as the MIC. The antibacterial activity of each compound was expressed as the minimum inhibitory concentration MIC (MIC is the lowest concentration of the compound needed to inhibit the growth of bacterial cells) and IC50 (IC50 is the concentration of the compound needed to inhibit the growth of bacterial cells by 50%).

[2] = system: B. subtilis DBM 3006; type: cell-based, Bacillus subtilis
Procedure: as §1

[3] = system: Staph. aureus DBM 3002; type: cell-based, Staphylococcus aureus
Procedure: as §1

[4] = system: Staph. aureus MRSA1; type: cell-based, Staphylococcus aureus
Procedure: as §1

[5] = system: C. tropicalis DBM 2166; type: cell-based, Candida tropicalis
Procedure: as §1

[6] = system: Staph. aureus MRSA1; type: cell-based, Staphylococcus aureus; conditions: 24 h, 2
Procedure: This assay was used to determine how quick the effect of PAL/LCA-peptides is on bacteria, as well as whether the activity of these compounds is dependent on the presence of active bacterial metabolism (Kamysz et al. [2007]). The bacterial cultures were incubated overnight at 37 °C in Mueller–Hinton’s broth 2 or potassium phosphate buffer (0.1 M, pH 7). Cultures were diluted to OD600 equal to 0.1 and divided into 2 samples, and the final volume of each sample was 1 mL; after that, they were centrifuged (5000 × g, 10 min) to collect bacteria. […] The samples were incubated at 37 °C. At specific time intervals, samples of bacterial suspension were taken, diluted, and spread on Petri dishes with Mueller–Hinton’s agar to count the number of surviving cells as colony-forming units (CFU). The whole experiment lasted 24 h.

[7] = system: bacterial membrane; assay: Membrane disruption (released lactate dehydrogenase activity); type: cell-based, Staphylococcus aureus; conditions: 1 h incubation at 37 °C, LDH kit, triplets
Procedure: The disruption of the microbial membrane was followed by the detection of lactate dehydrogenase activity released from the intracellular space using a Cytotoxicity Detection Kit (LDH) from Roche (Korzeniewski and Callewaert [1983]; Macurkova et al. [2014]) after 1 h incubation at 37 °C with the PAL/LCA-peptide. The culture supernatant was collected and incubated with the reaction mixture from the kit. In the first step, NAD^+ is reduced to NADH + H^+ by the LDH-catalyzed conversion of lactate to pyruvate. In the second step, the catalyst (diaphorase) transfers H/H^+ from NADH + H^+ to the tetrazolium salt 2-(4-iodophenyl)-3-(4-nitrophenyl)-5-phenyl-2H-tetrazolium chloride (INT), which is reduced to formazan. The formazan dye formed is red and water-soluble and gives a broad absorption maximum at 500 nm. An increase in the amount of dead or plasma membrane-damaged cells results in an increase in the LDH activity in the cell culture supernatant.
To determine the degree of damage to the cell membrane (%) by the tested substances, averages of absorbances (triplets) were calculated from the measured values for the samples, controls, and pure medium. Subsequently, the absorbance average for the clean medium (background) was subtracted from all averages obtained in this way. The degree of damage to the cell membrane by the tested substances was expressed as follows: membranedamage%=((AVZ-∅ANK)/(∅APK-ANK))∙100 ∅AVZ⋯averageabsorbanceofsample ∅ANK⋯averageabsorbanceofnegativecontrol ∅APK⋯averageabsorbanceofpositivecontrol

[8] = system: plasmid pGreen 0029; assay: DNA binding assay (gel retardation); conditions: circular or linearized forms, tested ratios
Procedure: This assay was performed as described by Park et al. ([1998]), with a few modifications. […] The reaction mixture was incubated at room temperature for 1 h. Subsequently, 4 µL of native loading buffer (10% Ficol, 10 mM Tris–HCl (pH 7.5), 50 mM EDTA, 0.25% bromophenol blue) was added. An aliquot was applied to 1% agarose gel electrophoresis in 0.5xTris borate-EDTA buffer. Circular plasmid DNA was isolated from (Luria–Bertani medium with AMPI in final concentration 100 µg/mL) bacterial strain E. coli DH5α / pBluescriptII KS- that had been grown overnight, and linearization was performed overnight by enzymatic reaction using restriction endonuclease EcoRV at 37 °C. The evaluation was performed by visualizing the DNA with the intercalation dye Midori Green Advanced DNA Stain under UV light. Reduced electrophoretic mobility compared to the control is considered to be evidence of peptide binding to DNA.
According to the previous results, we decided to clarify one of the possible molecular interaction mechanisms, the ability of the studied lipopeptides to bind microbial plasmid DNA. Based on the assumption that pore formation is only one of the influencing factors, which arose from previous results, the effect on one of the possible intracellular targets, DNA, was determined. This determination was carried out on isolated plasmid DNA, specifically on two plasmids, pGreen 0029 and pBluescript II KS- in circular and linearized form.

CCCCCCCCCCCCCCCC(=O)N[C@@H](CC(C)C)C(=O)N[C@H](C(=O)N[C@@H](CCCCN)C(=O)N[C@@H](CCCNC(=N)N)C(=O)N[C@@H](C)C(=O)NCC(N)=O)C(C)C [SHP-1.2, PAL-LVKRAG-NH2] (Palmitoyl-LVKRAG-NH2)
IC50 [1]: 60.0 µg/mL (≈ 68.2 µM) | MIC ([2]; DBM 3006, 24 h): 16.9 µg/mL (≈ 19.2 µM) | IC50 ([2]; DBM 3006, 25 h): 25.0 µg/mL (≈ 28.4 µM) | MIC ([3]; 24 h): 27.7 µg/mL (≈ 31.5 µM) | IC50 ([3]; 25 h): 50.0 µg/mL (≈ 56.8 µM) | MIC ([4]; 24 h): 7.8 µg/mL (≈ 8.86 µM) | IC50 ([4]; 25 h): 12.5 µg/mL (≈ 14.2 µM) | MIC ([5]; DBM 2166, 24 h): 55.9 µg/mL (≈ 63.5 µM) | IC50 ([5]; DBM 2166, 25 h): 100.0 µg/mL (≈ 114 µM) | bacteria killed within half an hour [6]: 100% | Membrane damage (%) ([7]; KP (potassium phosphate buffer)): 32 ± 4% | Membrane damage (%) ([7]; MHB (Mueller–Hinton broth II)): 26 ± 3% | influence on electrophoretic mobility of plasmid DNA [8]: did not exhibit any influence
